Assay results: PMC9133112, “The structural basis of Cdc7-Dbf4 kinase dependent targeting and phosphorylation of the MCM2-7 double hexamer” (Nature Communications, 2022)

Biological target: T1, DDK (Dbf4-dependent Cdc7 kinase, Cdc7-Dbf4) (Saccharomyces cerevisiae, UniProt P06243)
T1 construct: full-length Cdc7-Dbf4, expressed in budding yeast, MBP tag cleaved with PreScission, lambda phosphatase treated; with DDK kinase regulatory subunit DBF4
Test: inhibition of MCM2-7 phosphorylation by DDK (gel)
Type: biochemical
Settings: substrate MCM2-7

T1 sequence (P06243 whole entry): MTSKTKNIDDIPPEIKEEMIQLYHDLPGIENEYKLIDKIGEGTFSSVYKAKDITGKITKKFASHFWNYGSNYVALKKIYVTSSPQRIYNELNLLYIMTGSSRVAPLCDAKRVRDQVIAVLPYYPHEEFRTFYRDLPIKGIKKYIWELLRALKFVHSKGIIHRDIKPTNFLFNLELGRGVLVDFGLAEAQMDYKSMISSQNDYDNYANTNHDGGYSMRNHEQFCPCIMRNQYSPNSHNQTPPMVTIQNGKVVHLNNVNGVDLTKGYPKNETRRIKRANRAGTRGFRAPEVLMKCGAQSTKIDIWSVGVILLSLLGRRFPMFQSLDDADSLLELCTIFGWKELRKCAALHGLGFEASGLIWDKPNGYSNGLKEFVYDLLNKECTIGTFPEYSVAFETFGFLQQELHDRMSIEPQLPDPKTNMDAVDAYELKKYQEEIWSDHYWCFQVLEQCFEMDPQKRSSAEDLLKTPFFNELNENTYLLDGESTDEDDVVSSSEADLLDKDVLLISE
T1 sequence (P32325 whole entry partner): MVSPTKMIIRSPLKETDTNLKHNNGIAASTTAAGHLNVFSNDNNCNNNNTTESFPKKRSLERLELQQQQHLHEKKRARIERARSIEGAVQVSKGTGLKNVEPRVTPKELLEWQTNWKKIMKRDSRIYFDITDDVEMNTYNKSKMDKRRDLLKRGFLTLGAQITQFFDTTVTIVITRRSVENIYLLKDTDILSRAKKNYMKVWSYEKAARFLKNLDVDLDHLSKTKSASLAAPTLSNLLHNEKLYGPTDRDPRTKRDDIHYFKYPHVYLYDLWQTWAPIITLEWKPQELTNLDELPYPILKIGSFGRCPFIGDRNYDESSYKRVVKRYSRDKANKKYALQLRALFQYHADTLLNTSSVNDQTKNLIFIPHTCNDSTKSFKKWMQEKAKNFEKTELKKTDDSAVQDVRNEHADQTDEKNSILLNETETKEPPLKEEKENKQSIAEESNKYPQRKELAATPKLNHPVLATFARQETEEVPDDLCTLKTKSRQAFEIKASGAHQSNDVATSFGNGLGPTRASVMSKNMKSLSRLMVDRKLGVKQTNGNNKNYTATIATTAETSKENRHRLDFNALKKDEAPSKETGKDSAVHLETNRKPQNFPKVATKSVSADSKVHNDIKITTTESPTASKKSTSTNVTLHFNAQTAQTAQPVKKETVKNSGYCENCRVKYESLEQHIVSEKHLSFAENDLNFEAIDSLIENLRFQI

SMILES | inhibition
O=C1NCCc2[nH]c(-c3ccncc3)cc21 [PHA767491] | DDK phosphorylation of MCM2-7 is inhibited by the human Cdc7 inhibitors: XL413, PHA767491 and TAK931
O=c1[nH]c([C@@H]2CCCN2)nc2c1oc1ccc(Cl)cc12 [XL413] | DDK phosphorylation of MCM2-7 is inhibited by the human Cdc7 inhibitors: XL413, PHA767491 and TAK931
Cc1[nH]ncc1-c1cc2nc([C@@H]3CC4CCN3CC4)[nH]c(=O)c2s1 [TAK931] | DDK phosphorylation of MCM2-7 is inhibited by the human Cdc7 inhibitors: XL413, PHA767491 and TAK931
